Results as given in patent US8247569B2, “Cyclohexane derivative and pharmaceutical use thereof” (Toray Industries, Inc., priority 2008, dated 2012).
Like-named read-outs stand apart in the source and are kept apart here.

Columns and labels:
[1] = test system: mouse sciatic nerve-ligation model (Seltzer model); experiment: mouse partial sciatic nerve ligation model (Seltzer model), von Frey test; settings: for von Frey total score compared to the vehicle group: 1 hour after oral administration, doses as in Table 11; for Score improvement rate: 1 hour after administration; for von Frey Total Score Observed 1 Hour after Oral Administration (mean ± standard error), Compound-administered group: n = 5 to 6
[2] = mouse liver microsomal stability assay; assay type: in vitro ADME; settings: pH 7.4; mouse liver microsomes 0.5 mg/mL; test compound 2 μmol/L; 37° C., 0-30 min; read-out: Hepatic intrinsic clearance, Mouse
Description: (§1) A liver microsomal stability assay, which is known to be an in vitro assay for evaluation of the stability of a compound against hepatic metabolism, was carried out to evaluate the stability of Compound (I) against human and mouse hepatic metabolism.
(§2) A total of 4 times of experiments were carried out for the combinations of the compound of Example 2-B or the compound of Comparative Example 29 as the test compound and human liver microsomes (Xenotech) or mouse liver microsomes (Xenotech) as the liver microsomes.
The respective reagents to be used for the liver microsomal stability assay were prepared as follows. That is, an appropriate amount of D-glucose 6-phosphate disodium salt (hereinafter referred to as G6P) was dissolved in distilled water at 100 mmol/L, to prepare 100 mmol/L aqueous G6P solution. In 5 mL of distilled water, 1000 units of Glucose 6-phosphate dehydrogenase from Yeast (hereinafter referred to as G6PDH) was dissolved, to prepare 200 units/mL aqueous G6PDH solution. An appropriate amount of MgCl2 was dissolved in distilled water at 100 mmol/L, to prepare 100 mmol/L aqueous MgCl2 solution. […]

[3] = human liver microsomal stability assay; assay type: in vitro ADME; settings: liver microsomes, pH 7.4, human liver microsomes 0.5 mg/mL, test compound 2 μmol/L, 37° C., 0-30 min
Description: as §1, §2
The respective reagents to be used for the liver microsomal stability assay were prepared as follows. That is, an appropriate amount of D-glucose 6-phosphate disodium salt (hereinafter referred to as G6P) was dissolved in distilled water at 100 mmol/L, to prepare 100 mmol/L aqueous G6P solution. In 5 mL of distilled water, 1000 units of Glucose 6-phosphate dehydrogenase from Yeast (hereinafter referred to as G6PDH) was dissolved, to prepare 200 units/mL aqueous G6PDH solution. An appropriate amount of MgCl2 was dissolved in distilled water at 100 mmol/L, to prepare 100 mmol/L aqueous MgCl2 solution. To 500 mL of 200 mmol/L aqueous K2HPO4 solution, 200 mmol/L aqueous KH2PO4 solution (about 130 mL) was added, and pH was adjusted to 7.4, to prepare 200 mmol/L KH2PO4/K2HPO4 buffer pH7.4 (hereinafter referred to as 200 mmol/L PB). β-nicotinamide-adenine dinucleotide phosphate, reduced form, tetrasodium salt (hereinafter referred to as (NADPH) was dissolved in distilled water such that the NADPH content becomes 10 mmol/L based on the purity (Purity NADPH) in the assay data described in the attached document, to prepare 10 mmol/L aqueous NADPH solution.
The liver microsomal stability assay was carried out according to the following procedure. First, the reagents listed in Table 12 (excluding microsomes) were mixed together to prepare a reaction mixture, and the reaction mixture was aliquoted in 130 μL volumes to 4 wells (which play roles as the wells for the 0-minute reaction, well for the 30-minute reaction, well for the 20-minute reaction and well for the 10-minute reaction, respectively) in a 96-well tube plate (BM Equipment Co., Ltd; hereinafter referred to as plate). The entire plate was covered with a silicone cap, and the plate was subjected to preincubation by being soaked in a water bath at 37° C. for 10 minutes.
After the preincubation, 3.75 μL of 20 mg/mL microsome suspension+16.25 μL of distilled water (20 μL in total) were added to the well for the 30-minute reaction, and the plate was covered with the cap, followed by soaking the plate in a water bath at 37° C. to initiate the reaction.
Ten minutes after the beginning of the reaction, 3.75 μL of 20 mg/mL microsome suspension+16.25 μL of distilled water (20 μL in total) were added to the well for the 20-minute reaction, and 20 minutes after the beginning of the reaction, 3.75 μL of 20 mg/mL microsome suspension+16.25 μL of distilled water (20 μL in total) were added to the well for the 10-minute reaction. The reaction was further continued by keeping the plate soaked in the water bath at 37° C.
Thirty minutes after the beginning of the reaction, the plate was removed from the water bath, and 120 μL of acetonitrile was added to each well, followed by covering the plate with the cap, stirring the plate for 10 seconds with Direct Mixer, and stopping the reaction by 10 minutes of ice cooling. After the reaction was stopped, 3.75 μL of 20 mg/mL microsome suspension+16.25 μL of distilled water (20 μL in total) were added to the well for the 0-minute reaction.
The reaction liquid in each well was centrifuged at 4° C. at 2500 rpm for 10 minutes, and the supernatant was transferred to a glass-coated microplate (TOMSIC Plate+) to begin LC/MS/MS analysis. The conditions for the LC/MS/MS analysis were as follows: […]

[4] = evaluation of safety using mice, 5-day repeated oral administration; assay type: in vivo; settings: for no-observed-adverse-effect-level: Crlj:CD1 (ICR) mice, repeated oral administration for 5 days, assumed value
Description: Crlj:CD1 (ICR) mice of 7 weeks old were subjected to repeated oral administration of Example 2-B or Comparative Example 29 for 5 days, and observation of clinical sign, measurement of body weight, hematology, blood chemistry, gross autopsy, measurement of organ weight and histopathology were carried out. Further, on Day 1 and Day 5 after the administration, TK measurement was carried out. Exposure to the respective compounds was confirmed.
The doses of Example 2-B were 0, 40, 200 and 1000 mg/kg/day, and those of Comparative Example 29 were 0, 30, 100 and 300 mg/kg/day. The solution to be administered was prepared using 0.5% aqueous methyl cellulose solution as a vehicle, such that the administration volume becomes 10 mL/kg.

[5] = pharmacokinetics (PK) test in mice; assay type: in vivo; settings: mouse, plasma, female CD1 (ICR) mice, fasted; for clearance: intravenous, read-out: total body clearance (converted); for bioavailability: oral vs intravenous administration, from dose-normalized AUC0-24 hr, read-out: bioavailability (BA)
Description: Example 2-B or Comparative Example 29 was orally administered to mice, and the plasma level after the administration was measured to study the influence of improvement of the metabolic stability in liver microsomes on the change in the plasma level of the compound.
Female CD1 (ICR) mice of 7 weeks old which had been fed ad libitum with pellets (Oriental Yeast Co., Ltd.) and tap water were fasted for 17 hours before the administration. Feeding to the mice was begun again 4 hours after the administration.
In the case of intravenous administration of the solution, the animal was fixed in a holder, and the administration was carried out from the tail vein without anesthesia, using a syringe with an injection needle (25 G) attached thereto. In the case of oral administration, a syringe with a feeding needle attached thereto was used without anesthesia to force the solution into the stomach.
In terms of the mice to which the solution was intravenously administered, blood was collected a total of 8 times from the jugular vein or heart 5, 15 and 30 minutes and 1, 2, 4, 8 and 24 hours after the intravenous administration. In terms of the mice to which the solution was orally administered, blood was collected a total of 8 times from the jugular vein or heart 15, 30 and 45 minutes and 1, 2, 4, 8 and 24 hours after the oral administration. Further, from the jugular vein or heart of mice to which the solution was not administered, blood was collected as a blank. The collected blood was centrifuged at 4° C. at 12000 rpm for 5 minutes, and the obtained mouse plasma and blank plasma were stored at about −20° C. until preparation of samples for analysis. […]
From the results of the LC/MS/MS analysis, a calibration curve was prepared using Analysis 1.4 (Applied Biosystems). Based on the LC/MS/MS analysis and the prepared calibration curve, the concentration in each measurement sample was calculated using Analysis 1.4. For 3 times each of the experiments by intravenous administration and oral administration, the mean plasma level at each time point was calculated, and PK analysis was carried out using the obtained values (FIG. 6 and FIG. 7; each plot indicates the mean plasma level at each time point and its ±standard deviation; i.v. indicates test data by intravenous administration; and p.o. indicates test data by oral administration). The PK parameter was calculated using WinNonlin (Pharsight) by analysis independent of the models (intravenous administration: Model 201, oral administration: Model 200). Further, the bioavailability (BA) was calculated by normalization by dividing AUC0-24 hr from the time point of the intravenous administration or oral administration to the time point of the final blood collection by the dose.

[6] = test system: mouse acetic acid writhing model; experiment: mouse acetic acid writhing model (nociceptive pain); assay type: in vivo; settings: male ddY mice, oral administration 45 min before 0.6% acetic acid i.p., dose suppressing 50% of writhing responses vs vehicle group, vehicle A or B
[7] = read-out: Human hepatic intrinsic clearance

Compound | no-observed-adverse-effect-level [4] | clearance [5] | bioavailability [5] | ED50 ([6]; Mus musculus, read-out: ED50) | von Frey total score compared to the vehicle group [1] | microsomal CLint at 2 μmol/L [3, 7] | also measured
COc1ccc(-n2nc(C3(O)CCN(C(=O)N(C)O)CC3)c(F)c2-c2ccc(C)cc2)cc1 [Comparative Example 29, 4-(4-Fluoro-1-(4-methoxyphenyl)-5-(4-tolyl)-1H-pyrazol-3-yl)-1-(N-hydroxy-N-methylcarbamoyl)-4-piperidinol, reference compound] | less than 30 mg/kg/day | 94.5 mL/min/kg | 54% | – | – | – | analgesic effect 3 hours after the oral administration (von Frey test) ([1]; positive controls, gabapentin 30 mg/kg oral, dose of Comparative Example 29 not given): drastically decreased; time of strongest analgesic effect after oral administration (von Frey test) ([1]; positive controls, gabapentin 30 mg/kg oral, dose of Comparative Example 29 not given, FIGS. 1 to 4): 1 h; microsomal CLint at 2 μmol/L [2]: 267 µL/min/mg; microsomal CLint at 2 μmol/L ([3]; read-out: Hepatic intrinsic clearance, Human): 110 µL/min/mg
COc1ccc(-n2nc(C3(O)CCC(O)CC3)cc2-c2ccc(C)cc2)cc1 (stereo not drawn) [Example 2-B, 1-(1-(4-methoxyphenyl)-5-(p-tolyl)-1H-pyrazol-3-yl)cyclohexane-cis-1,4-diol] | 200 mg/kg/day | 16.2 mL/min/kg | 88% | – | – | – | ED50 [6]: 1.40 mg/kg; toxicity findings ([4]; mouse, in vivo, po, 1000 mg/kg/day): possibilities of induction of hepatotoxicity, effects on immune organs/tissues and induction of gastrointestinal toxicity were suggested
COc1ccc(-n2nc(C3(O)CCC(O)CC3)c(Cl)c2-c2ccc(C)cc2)cc1 (stereo not drawn) [Example 59, 1-(4-Chloro-1-(4-methoxyphenyl)-5-(p-tolyl)-1H-pyrazol-3-yl)cyclohexan-cis-1,4-diol] | – | – | – | 9.92 mg/kg | significantly improved | 44.6 µL/min/mg | Score improvement rate ([1]; dose 10 mg/kg oral, vehicle A): 66%; von Frey Total Score Observed 1 Hour after Oral Administration (mean ± standard error), Compound-administered group ([1]; dose 10 mg/kg oral, […]): 1.7 ± 0.6
COc1ccc(-n2nc(C3(O)CCC(O)(C(F)(F)F)CC3)cc2-c2ccc(C)cc2)cc1 (stereo not drawn) [Example 62, 1-(1-(4-Methoxyphenyl)-5-(p-tolyl)-1H-pyrazol-3-yl)-4-(trifluoromethyl)cyclohexan-cis-1,4-diol] | – | – | – | 0.54 mg/kg | – | 33.3 µL/min/mg | analgesic effect 3 hours after the oral administration (von Frey test) ([1]; oral administration of Example 2-B and Example 62 in amounts of 0.3 and 1.0 mg/kg, respectively, FIG. 2, FIG. 3): a strong analgesic effect was maintained
COc1ccc(-n2nc(C3(O)CCC(C(=O)O)CC3)cc2-c2ccc(C)cc2)cc1 (stereo not drawn) [Example 64, 4-hydroxy-4-(1-(4-methoxyphenyl)-5-p-tolyl-1H-pyrazol-3-yl)-cis-cyclohexanecarboxylic acid] | – | – | – | 1.19 mg/kg | significantly improved | 2.06 µL/min/mg | Score improvement rate ([1]; dose 1 mg/kg oral, vehicle C): 57%; von Frey Total Score Observed 1 Hour after Oral Administration (mean ± standard error), Compound-administered group ([1]; dose 1 mg/kg oral, vehicle C (0.5% methyl cellulose, suspension)): 2.3 ± 0.5
